This note sets out measurements from patent publication US9676714B2, “Sulfonylindole derivatives and method for preparing the same” (Daewoong Pharmaceutical Co., Ltd., priority 2013, dated 2017).

This assay concerns the target T1, proton pump (H+/K+-ATPase) (Sus scrofa, UniProt P19156).
T1 construct: Gastric vesicles were prepared from hog stomach via centrifugal separation; from tissue; host or cells: hog stomach (gastric vesicles, method of Rabon et al. 1988)
In words: Measurement of inhibitory effects on proton pump (H+/K+-ATPase) activities. It counts as biochemical. The conditions noted are these: hog gastric vesicles, K+-specific H+/K+-ATPase activity, Tris-HCl buffer pH 7.4, 37° C. for 40 minutes, malachite green Pi readout. An outline of the steps: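 Hog gastric vesicles in 60 mmol/l Tris-HCl pH 7.4 with 0.5% DMSO were treated with compounds at room temperature; reaction was started with 10 μl of 10 mmol/l ATP stock. Released Pi was read at 570 nm, K+-specific activity taken as the ±K+ difference. IC50 from 4-parameter logistic fit.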

Where a name gives a salt, the structure may show the parent alone.

T1 sequence (P19156 whole entry): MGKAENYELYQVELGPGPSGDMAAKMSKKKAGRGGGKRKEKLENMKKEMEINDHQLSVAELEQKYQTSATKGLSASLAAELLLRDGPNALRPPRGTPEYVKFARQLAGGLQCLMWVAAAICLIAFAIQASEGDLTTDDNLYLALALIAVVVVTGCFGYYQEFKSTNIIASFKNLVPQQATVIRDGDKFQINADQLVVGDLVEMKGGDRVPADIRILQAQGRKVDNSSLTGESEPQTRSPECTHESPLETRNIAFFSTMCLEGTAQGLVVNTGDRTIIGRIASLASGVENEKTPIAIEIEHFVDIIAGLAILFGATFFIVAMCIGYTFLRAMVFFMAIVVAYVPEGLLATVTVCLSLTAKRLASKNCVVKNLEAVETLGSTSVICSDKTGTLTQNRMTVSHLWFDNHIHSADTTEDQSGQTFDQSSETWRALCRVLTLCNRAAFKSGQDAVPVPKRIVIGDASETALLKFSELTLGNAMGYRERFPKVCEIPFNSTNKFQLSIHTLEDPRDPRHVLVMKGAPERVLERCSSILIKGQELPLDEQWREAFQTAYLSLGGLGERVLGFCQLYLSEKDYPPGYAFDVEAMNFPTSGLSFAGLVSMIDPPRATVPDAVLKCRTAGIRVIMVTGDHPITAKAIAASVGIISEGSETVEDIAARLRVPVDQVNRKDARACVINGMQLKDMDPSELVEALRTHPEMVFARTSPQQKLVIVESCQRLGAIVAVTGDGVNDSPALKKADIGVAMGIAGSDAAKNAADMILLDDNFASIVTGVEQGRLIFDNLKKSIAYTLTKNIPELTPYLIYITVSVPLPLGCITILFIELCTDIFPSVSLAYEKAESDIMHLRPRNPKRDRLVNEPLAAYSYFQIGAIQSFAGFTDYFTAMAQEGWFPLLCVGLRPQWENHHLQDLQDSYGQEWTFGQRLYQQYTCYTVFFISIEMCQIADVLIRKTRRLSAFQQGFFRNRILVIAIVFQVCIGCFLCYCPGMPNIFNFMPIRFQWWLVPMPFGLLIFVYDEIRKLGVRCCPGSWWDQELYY
T1 sequence (P18434 whole entry partner): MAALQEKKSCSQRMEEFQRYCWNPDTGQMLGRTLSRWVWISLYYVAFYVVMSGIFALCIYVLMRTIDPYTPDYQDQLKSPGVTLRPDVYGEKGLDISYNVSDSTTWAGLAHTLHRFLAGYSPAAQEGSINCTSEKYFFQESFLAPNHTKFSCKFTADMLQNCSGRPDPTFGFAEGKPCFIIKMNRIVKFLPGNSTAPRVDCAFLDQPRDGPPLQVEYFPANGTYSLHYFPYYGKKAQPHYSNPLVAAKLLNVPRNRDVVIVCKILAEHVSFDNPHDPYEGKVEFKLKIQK

For the molecule `CNCc1cn(S(=O)(=O)c2cccc(Cl)c2)c2cc(Nc3ccc(C(F)(F)F)cc3Cl)ccc12` [Example 152, N-(2-chloro-4-(trifluoromethyl)phenyl)-1-((3-chlorophenyl)sulfonyl)-3-((methylamino)methyl)-1H-indol-6-amine hydrochloride], half-maximal inhibition (IC50) required 350 nM. As for `CNCc1cn(S(=O)(=O)c2cccc(Cl)c2)c2cc(Nc3ccc(OC(F)(F)F)cc3C)ccc12` [Example 154, 1-((3-chlorophenyl)sulfonyl)-N-(2-methyl-4-(trifluoromethoxy)phenyl)-3-((methylamino)methyl)-1H-indol-6-amine hydrochloride], the IC50 (in general, the midpoint of a concentration-inhibition curve) came to 480 nM.

Regarding `CNCc1cn(S(=O)(=O)c2cccc(Cl)c2)c2cc(Nc3ccc(OC(F)(F)F)cc3F)ccc12` [Example 155, 1-((3-chlorophenyl)sulfonyl)-N-(2-fluoro-4-(trifluoromethoxy)phenyl)-3-((methylamino)methyl)-1H-indol-6-amine hydrochloride], the IC50 was determined as 440 nM. Take `CNCc1cn(S(=O)(=O)c2cccc(Cl)c2)c2cc(Nc3ccc(C)c(F)c3F)ccc12` [Example 156, 1-((3-chlorophenyl)sulfonyl)-N-(2,3-difluoro-4-methylphenyl)-3-((methylamino)methyl)-1H-indol-6-amine hydrochloride]: the IC50 worked out at 380 nM. The IC50 values of the last two molecules are within 1.5-fold of each other.

In the case of `CNCc1cn(S(=O)(=O)c2cccc(Cl)c2)c2cc(Nc3cccnc3OC)ccc12` [Example 157, 1-((3-chlorophenyl)sulfonyl)-N-(2-methoxypyridin-3-yl)-3-((methylamino)methyl)-1H-indol-6-amine hydrochloride], 380 nM corresponded to half-maximal inhibition (IC50). This counts as sub-micromolar.

Take `CNCc1cn(S(=O)(=O)c2cccc(Cl)c2)c2cc(Nc3ccc(C)nc3F)ccc12` [Example 158, 1-((3-chlorophenyl)sulfonyl)-N-(2-fluoro-6-methylpyridin-3-yl)-3-((methylamino)methyl)-1H-indol-6-amine hydrochloride]: the IC50 stood at 410 nM. `CNCc1cn(S(=O)(=O)c2cccc(Cl)c2)c2cc(Nc3ccc(Cl)nc3Cl)ccc12` [Example 159, 1-((3-chlorophenyl)sulfonyl)-N-(2,6-dichloropyridin-3-yl)-3-((methylamino)methyl)-1H-indol-6-amine hydrochloride]: the midpoint of inhibition, the IC50, lay at 340 nM.

`CNCc1cn(S(=O)(=O)c2cccc(Cl)c2)c2cc(Nc3ccc(C(F)(F)F)nc3Cl)ccc12` [Example 161, N-(2-chloro-6-(trifluoromethyl)pyridin-3-yl)-1-((3-chlorophenyl)sulfonyl)-3-((methylamino)methyl)-1H-indol-6-amine hydrochloride] yielded an IC50 of 460 nM.

For `CNCc1cn(S(=O)(=O)c2cccc(OC)c2)c2cc(Nc3ccc(C)cc3F)ccc12` [Example 162, N-(2-fluoro-4-methylphenyl)-1-((3-methoxyphenyl)sulfonyl)-3-((methylamino)methyl)-1H-indol-6-amine hydrochloride], the IC50 came out at 20 nM.

Consider `CNCc1cn(S(=O)(=O)c2cccc(OC)c2)c2cc(Nc3ccc(C)cc3Cl)ccc12` [Example 163, N-(2-chloro-4-methylphenyl)-1-((3-methoxyphenyl)sulfonyl)-3-((methylamino)methyl)-1H-indol-6-amine hydrochloride], for which half-maximal inhibition (IC50) required 140 nM. Consider `CNCc1cn(S(=O)(=O)c2cccc(OC)c2)c2cc(Nc3ccc(Cl)cc3F)ccc12` [Example 164, N-(4-chloro-2-fluorophenyl)-1-((3-methoxyphenyl)sulfonyl)-3-((methylamino)methyl)-1H-indol-6-amine hydrochloride], for which 7060 nM corresponded to half-maximal inhibition (IC50).

In turn, `CNCc1cn(S(=O)(=O)c2cccc(OC)c2)c2cc(Nc3ccc(Cl)cc3C(F)(F)F)ccc12` [Example 165, N-(4-chloro-2-(trifluoromethyl)phenyl)-1-((3-methoxyphenyl)sulfonyl)-3-((methylamino)methyl)-1H-indol-6-amine hydrochloride] gave an IC50 of 80 nM. Against the preceding molecule, the IC50 is about 88-fold lower. The value for `CNCc1cn(S(=O)(=O)c2cccc(OC)c2)c2cc(Nc3ccc(C(F)(F)F)cc3Cl)ccc12` [Example 166, N-(2-chloro-4-(trifluoromethyl)phenyl)-1-((3-methoxyphenyl)sulfonyl)-3-((methylamino)methyl)-1H-indol-6-amine hydrochloride] was 340 nM; that for `CNCc1cn(S(=O)(=O)c2cccc(OC)c2)c2cc(Nc3ccc(OC)cc3F)ccc12` [Example 167, N-(2-fluoro-4-methoxyphenyl)-1-((3-methoxyphenyl)sulfonyl)-3-((methylamino)methyl)-1H-indol-6-amine hydrochloride] was 610 nM.

`CNCc1cn(S(=O)(=O)c2cccc(OC)c2)c2cc(Nc3ccc(OC(F)(F)F)cc3C)ccc12` [Example 168, 1-((3-methoxyphenyl)sulfonyl)-N-(2-methyl-4-(trifluoromethoxy)phenyl)-3-((methylamino)methyl)-1H-indol-6-amine hydrochloride] showed an IC50 of 790 nM.

`CNCc1cn(S(=O)(=O)c2cccc(OC)c2)c2cc(Nc3ccc(OC(F)(F)F)cc3Cl)ccc12` [Example 169, N-(2-chloro-4-(trifluoromethoxy)phenyl)-1-((3-methoxyphenyl)sulfonyl)-3-((methylamino)methyl)-1H-indol-6-amine hydrochloride] yielded an IC50 of 80 nM.

In the case of `CNCc1cn(S(=O)(=O)c2cccc(OC)c2)c2cc(Nc3ccc(C)c(F)c3F)ccc12` [Example 170, N-(2,3-difluoro-4-methylphenyl)-1-((3-methoxyphenyl)sulfonyl)-3-((methylamino)methyl)-1H-indol-6-amine hydrochloride], the 50% inhibitory concentration (IC50) turned out to be 260 nM.

As for `CNCc1cn(S(=O)(=O)c2cccc(OC)c2)c2cc(Nc3ccc(C)nc3F)ccc12` [Example 171, N-(2-fluoro-6-methylpyridin-3-yl)-1-((3-methoxyphenyl)sulfonyl)-3-((methylamino)methyl)-1H-indol-6-amine hydrochloride], 630 nM corresponded to half-maximal inhibition (IC50). Against the preceding molecule, the IC50 is about 2.4-fold higher. Take `CNCc1cn(S(=O)(=O)c2cccc(OC)c2)c2cc(Nc3ccc(C)nc3Cl)ccc12` [Example 172, N-(2-chloro-6-methylpyridin-3-yl)-1-((3-methoxyphenyl)sulfonyl)-3-((methylamino)methyl)-1H-indol-6-amine hydrochloride]: the IC50 came out at 1500 nM. The value for `CNCc1cn(S(=O)(=O)c2cccc(OC)c2)c2cc(Nc3ccc(OC)nc3Cl)ccc12` [Example 173, N-(2-chloro-6-methoxypyridin-3-yl)-1-((3-methoxyphenyl)sulfonyl)-3-((methylamino)methyl)-1H-indol-6-amine hydrochloride] was 1190 nM; that for `CNCc1cn(S(=O)(=O)c2cccc(OC(F)F)c2)c2cc(Nc3ccc(C)cc3F)ccc12` [Example 174, 1-((3-(difluoromethoxy)phenyl)sulfonyl)-N-(2-fluoro-4-methylphenyl)-3-((methylamino)methyl)-1H-indol-6-amine hydrochloride] was 20 nM; that for `CNCc1cn(S(=O)(=O)c2cccc(OC(F)F)c2)c2cc(Nc3ccc(C)cc3Cl)ccc12` [Example 175, N-(2-chloro-4-methylphenyl)-1-((3-(difluoromethoxy)phenyl)sulfonyl)-3-((methylamino)methyl)-1H-indol-6-amine hydrochloride] was 150 nM.
